Measurements published in patent US20220089540A1 (Board of Trustees of Michigan State University, priority 2019, published 2022).

Assays:
lung tumors of A/J mice = assay: Vinyl carbamate-induced (Kras) lung cancer in A/J mice; type: in vivo, mouse
Experimental: To evaluate the effects of LG268, with and without other chemotherapeutic agents, female A/J mice were injected with a weekly dose of vinyl carbamate for twelve weeks to induce lung tumors of between 0.5 and 1 mm in diameter. A/J mice were randomized and treated with either control diet or rexinoids fed in the diet (100 mg/kg diet). One week after the treatment diets started, mice were injected with 6 cycles of carboplatin (50 mg/kg i.p.), paclitaxel (15 mg/kg i.p.), or a combination thereof, given every other week. At the end of the studies, lungs were harvested en bloc and inflated with buffered formalin (NBF); liver and plasma were collected to determine drug levels and lipid concentrations. Step sectioning (200 μm between sections) of the left lung started at the medial hilar surface, and sections were stained with hematoxylin and eosin. The number, size, and histopathology of randomized, coded tumors were assessed on two separate sections of each lung by two independent investigators. Classification of the tumors as low, medium, or high grade was based on previously published histologic and nuclear criteria. The efficacy of other rexinoids (e.g., MSU 42011) for treatment of lung cancer, alone and in combination with standard of care chemotherapy (carboplatin and paclitaxel), is currently being evaluated in this preclinical model.

CD206 = CD206 expression in RAW 264.7 cells stimulated with E18-14C-27 conditioned media (immunoblot); type: cell-based, mouse; settings: increasing concentrations, 24 hours
Experimental: RAW 264.7 mouse macrophage-like (ATCC) and E18-14C-27 (Wu et al., Cancer Res. 62, 6376-6380 (2002)) cells were cultured in DMEM supplemented with 10% fetal bovine serum (FBS). RAW 264.7 cells were cultured at 50000/well in a 6 well plate for 24 hours to determine PD-L1 levels. E18-14C-27 cells were cultured for 72 hours in the presence of LG268 for protein levels. Conditioned media was collected from E18-14C-27 at 60-70% confluence for 24 hours; media was then collected and centrifuged at 900 rpm for 5 minutes to eliminate any cell debris.
To explore whether the expression of CD206 in macrophages is dependent on stimulatory factors from tumor cells (e.g., tumor educated macrophages), conditioned media was collected from an established cell line (E18-14C-27 cells) derived from a mammary tumor of an MMTV-Neu mouse. When RAW 264.7 (macrophage-like) cells were stimulated with conditioned media from the E18-14C-27 cancer cells and treated with increasing concentrations of LG268 for 24 hours, a decrease in the expression of CD206 was observed by immunoblotting (FIG. 2E).

CD3 T cells = assay: CD8 subpopulations in isolated spleen CD3 T cells (flow cytometry); type: cell-based, mouse; settings: anti-CD3ε, 3 days
Experimental: Cells were cultured for a total of 3 days.
Yellow zombie (Biolegend) staining was used to exclude dead cells.

PD-L1 = PD-L1 in THP-1 cells stimulated with SK-BR-3 conditioned media (flow cytometry); type: cell-based, human; settings: 24 hours
Experimental: THP-1 (ATCC) cells were cultured in RPMI supplemented with 5% FBS, and SK-BR-3 (ATCC) cells were cultured in DMEM supplemented with 10% FBS. THP-1 cells were cultured at 50000/well in a 6 well plate for 24 hours to determine PD-L1 levels with conditioned media from SK-BR-3 cells. Culturing SK-BR-3 cells at 60-70% confluence for 24 hours generated conditioned media; media was then collected and centrifuged at 900 rpm for 5 minutes to eliminate any cell debris. THP-1 cells were then plated at 100000 cells/well with the conditioned media, LG268 was added simultaneously.
For PD-L1 staining, RAW 264.7 cells were plated at 25000 cells/ml in 6 well plates for 24 hours before adding conditioned media from E18-14C-27 and LG268. RAW 264.7 cells were cultured for additional 24 hours with E18-14C-27 conditioned media and LG268. […] THP-1 cells were stained and analyzed for the levels of PD-L1 following the same protocol.

[1] = system: inducible nitric oxide synthase (iNOS); assay: iNOS suppression / NO assay in LPS-stimulated macrophages or RAW264.7 cells (Griess reaction); type: cell-based, mouse; settings: at 100 nM; comparators of Table 3
How it was run: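 RAW264.7 cells or macrophages incubated with rexinoids (300 nM, or 100 nM/300 nM, or a concentration series) and stimulated with 1–2 ng/ml LPS for 24 h. Nitric oxide released into medium measured by Griess reaction; values given as percent of LPS-stimulated control, % inhibition, or IC50.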

[2] = Toxicity in A/J mice with lung tumors fed rexinoids plus carboplatin and paclitaxel; type: in vivo; settings: 100 mg/kg diet, 7 weeks
Experimental: A/J mice with lung tumors (detected by ultrasound) were fed rexinoids in their diets (at 100 mg/kg diet) and injected twice every other week with carboplatin and paclitaxel.

RXR = settings: read-out: Kd for RXR; cited from earlier work
FOXP3 = FOXP3 mRNA in isolated spleen CD4 T cells skewed towards Tregs; settings: LG268 added for 4 days
[3] = system: mammary gland tumors of MMTV-Neu mice; assay: MMTV-Neu mouse model of HER2 positive breast cancer, rexinoid in diet
[4] = 100 mg/kg diet, LG268 5 days, bexarotene 10 days, western blot

Cc1cc2c(cc1C1(c3ccc(C(=O)O)cn3)CC1)C(C)(C)CCC2(C)C [LG268]
average number of lung tumors (lung tumors of A/J mice; LG268 100 mg/kg diet 12 weeks, C 50 mg/kg i.p., P 15 mg/kg i.p., 6 injections, control 3.4±0.25): 2.2±0.28 | average tumor size (lung tumors of A/J mice; control 0.58±0.09 mm^3): 0.24±0.03 mm^3 | average tumor burden (lung tumors of A/J mice; control 1.99±0.34 mm^3): 0.52±0.12 mm^3 | percentage of high grade tumors (lung tumors of A/J mice; control 71%): 52% | decrease of average tumor size vs controls (lung tumors of A/J mice; mouse, in vivo): 59% | diminution of average tumor burden vs control (lung tumors of A/J mice; mouse, in vivo): 74% | CD206 expression (CD206): decrease | CD8 naive and central memory cells (CD3 T cells): increased percentage | PD-L1 levels in THP-1 human macrophages (PD-L1): increases | iNOS [1]: 15-30% at 100 nM | toxicity findings (liver, triglycerides, cholesterol, fur) [2]: hepatomegaly, with elevated triglycerides and cholesterol | Kd (RXR): […] | reduction of FOXP3 mRNA expression vs vehicle control (FOXP3): 40% | PD-1 expression in tumors vs control ([3]; 100 mg/kg diet, 5 days): lower | PD-L1 expression in tumors vs control ([3]; 100 mg/kg diet, LG268 5 days, CW-V-125 10 days, western blot and/or immunohistochemistry): significantly higher | myeloid derived suppressor cells (CD45+, CD11b+, Gr1+) in tumors ([3]; 100 mg/kg diet, LG268 5 days, bexarotene 10 days, control 1.9%): 0.8 % of CD45+ immune cells | mammary tumor size (tumor weight as percentage of total body weight) ([3]; 100 mg/kg diet, LG268 5 days, bexarotene 10 days, control diet 3.2%): 1.1 % of total body weight | cleaved caspase 3 in tumors ([3]; 100 mg/kg diet, LG268 5 days, bexarotene 10 days, immunohistochemistry): increase | reduction of CD206 expression in tumor lysates [3, 4]: 65% | reduction of p-STAT1 expression in whole tumor lysates [3, 4]: 80% | activated CD4 T cells (CD45+, CD3+, CD4+, CD25+) in tumors ([3]; 100 mg/kg diet, control 27.5%): 13.0% | expression of p-STAT3 or p-STAT5 in tumor lysates ([3]; 100 mg/kg diet, western blot): no changes | caliber of the vessels in the tumors ([3]; CD31 immunohistochemistry): reduced | FOXP3 expression in tumors ([3]; immunohistochemistry): decreased | time to complete regression of the tumors ([3]; mouse, in vivo): less than 10 days
